Results on three compounds are retold here after US20120122908A1, “Novel C-4 Substituted Retinoids” (University of Maryland, priority 2000, published 2012).

The target in one data set is T1, RARα (Homo sapiens, UniProt P10276).
T1 construct: Recombinant full-length RAR proteins were expressed as S-Tag fusion proteins in BL21 E. coli cells; S-Tag; made in house; host or cells: E. coli BL21
T1 sequence (P10276 1-462): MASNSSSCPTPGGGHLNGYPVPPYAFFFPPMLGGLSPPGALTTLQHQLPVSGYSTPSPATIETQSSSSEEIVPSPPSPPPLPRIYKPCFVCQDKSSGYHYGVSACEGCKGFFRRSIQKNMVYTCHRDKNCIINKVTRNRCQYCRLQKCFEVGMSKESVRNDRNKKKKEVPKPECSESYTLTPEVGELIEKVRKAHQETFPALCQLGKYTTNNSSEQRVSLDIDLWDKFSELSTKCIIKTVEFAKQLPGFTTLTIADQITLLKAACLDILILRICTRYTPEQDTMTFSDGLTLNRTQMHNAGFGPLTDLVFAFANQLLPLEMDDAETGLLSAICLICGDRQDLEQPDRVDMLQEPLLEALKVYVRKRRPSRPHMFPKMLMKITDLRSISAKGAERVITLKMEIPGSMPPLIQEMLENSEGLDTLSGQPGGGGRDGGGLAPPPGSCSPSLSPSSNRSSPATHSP
The experiment in a line: Competitive [3H]ATRA binding to recombinant RARα. Conditions: for binding to RARα: concentrations up to 500 nM. The text has this:
(§1) Because the novel compounds are retinoid-related analogs, they bind to the retinoid receptors in vivo and thus have increased therapeutic potentials. Similar to ATRA, these novel compounds act as a ligand for the retinoic acid receptors (RARs, α, β, and γ) but not the retinoid X receptors (RXRs, α, β, and γ). […] (Nervi C, Grippo J F, Sherman M I, George M D, Jetten A M, Identification and characterization of nuclear retinoic acid-binding activity inhuman myeloblastic leukemia HL-60 cells, Proc Natl Acad Sci USA 86: 5854-5858, 1989) The dissociation constants for the inhibitors is determined by the well described charcoal absorption method (Yang N, Schule R, Mangelsdorf D J, Evans R M, Characterization of DNA binding and retinoic acid binding properties of retinoic acid receptor, Proc Natl Acad Sci USA 88: 3559-3663, 1991). Briefly, serial dilutions of the novel compounds (10^−11 to 10^−5 M) in dimethyl sulfoxide, 100 μL each is used. 12 mg of crude cytosolic extracts is prepared from pET15b (Novagen, Madison, Wis.)/hRAR-α, -β, and -γ prepared protein is used for each data point. All reactions are conducted in binding buffer (60 mM Na imidazole, 500 mM NaCl, 20 mM Tris, pH 7.9) for 14-16 hours at 4° C. in a final volume of 1 mL. Unbound [^3H]ATRA is removed by addition of 0.5 mL of equivalent-sized dextran-treated charcoal (final concentration 3% [wt/vol]) for 15 minutes at 4° C. […]
(§2) Since the RAMBAs are retinoic acid analogs, it is possible that some of the compounds may bind to retinoid receptors and function as either transcriptional agonists/antagonists or may display anti AP-1 activity (Chambon P, A decade of molecular biology of retinoic acid, FASEB J 10: 5899-5904, 19962. The ability of three RAMBAs, VN/14-1, VN/50A-1 and VN/66-1 to bind to the individual RAR receptors was thus evaluated in vitro. Recombinant full-length RAR proteins were expressed as S-Tag fusion proteins in BL21 E. coli cells used for competitive binding assays. Each competition-binding assay contained 1 nM [^3H] […]

Data set [1] is described as follows: Pharmacokinetic studies in mice (plasma levels by HPLC). It counts as in vivo. As to the method:
FIG. 18: Plasma Levels in Balb/c Mice Following Dose of 10 mg/kg body weight Given s/c.
Pharmacokinetic studies of VN/65-4 and VN/66-1 were measured in mice and were compared to VN/14-1 and VN/50A-1. Mice were dosed s.c. at 10 mg/kg using a vehicle, 45% β-cyclodextrin in water, and plasma levels were measured by HPLC. […] The results are summarized in Table 3 below and the profiles in FIG. 18.

Another data set deals with T2, RARγ (Homo sapiens, UniProt P13631).
T2 construct: Recombinant full-length RAR proteins were expressed as S-Tag fusion proteins in BL21 E. coli cells; S-Tag; made in house; host or cells: E. coli BL21
T2 sequence (P13631 1-454): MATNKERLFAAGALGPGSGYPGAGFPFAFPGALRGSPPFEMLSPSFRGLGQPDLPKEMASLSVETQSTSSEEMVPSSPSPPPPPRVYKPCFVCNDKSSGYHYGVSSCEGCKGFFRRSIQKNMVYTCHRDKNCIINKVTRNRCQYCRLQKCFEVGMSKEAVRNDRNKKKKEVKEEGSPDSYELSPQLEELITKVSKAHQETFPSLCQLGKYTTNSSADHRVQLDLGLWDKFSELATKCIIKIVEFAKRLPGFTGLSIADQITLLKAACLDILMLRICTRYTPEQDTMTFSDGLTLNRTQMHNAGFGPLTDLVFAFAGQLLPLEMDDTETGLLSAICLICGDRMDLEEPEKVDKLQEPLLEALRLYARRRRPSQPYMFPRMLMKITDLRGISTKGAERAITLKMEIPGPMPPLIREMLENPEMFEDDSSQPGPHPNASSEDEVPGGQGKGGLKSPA
Nature of the data set: Competitive [3H]ATRA binding to recombinant RARγ. To be noted: for binding to RARγ: concentrations up to 500 nM.
Excerpt: as §1, §2

The target in the next data set is T3, CYP19 (aromatase) (Homo sapiens, UniProt P11511).
T3 sequence (P11511 1-503): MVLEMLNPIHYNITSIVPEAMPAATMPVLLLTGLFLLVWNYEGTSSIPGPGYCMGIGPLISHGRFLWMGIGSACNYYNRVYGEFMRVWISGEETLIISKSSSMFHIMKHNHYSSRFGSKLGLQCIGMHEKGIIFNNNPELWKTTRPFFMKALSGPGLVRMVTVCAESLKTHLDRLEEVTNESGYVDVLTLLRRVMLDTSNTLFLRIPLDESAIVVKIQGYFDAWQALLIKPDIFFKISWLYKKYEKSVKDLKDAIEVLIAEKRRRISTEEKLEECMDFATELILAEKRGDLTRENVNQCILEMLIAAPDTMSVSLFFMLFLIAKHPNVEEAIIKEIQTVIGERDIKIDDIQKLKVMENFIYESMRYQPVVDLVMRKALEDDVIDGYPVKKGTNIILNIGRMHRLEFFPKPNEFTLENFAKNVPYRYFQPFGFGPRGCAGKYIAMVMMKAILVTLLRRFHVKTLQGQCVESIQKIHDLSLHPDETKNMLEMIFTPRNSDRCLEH
Nature of the data set: Selectivity: effect on CYP19 (aromatase). It counts as biochemical. Conditions: concentration as high as 5 μM. The protocol: The selectivity of the compounds of the present invention towards ATRA-4-hydroxylase was tested by measuring the effect on the key enzymes in the biosynthesis of estradiol and dehydroepiandrosterone, CYP19 (aromatase) and CYP17 (17-lyase), respectively.

[2] abbreviates: 1 nM [3H]ATRA, competitor 1 nM to 500 nM.
[3] abbreviates: mice, 10 mg/kg s.c., average of two animals.

Structures are written as SMILES. pIC50: −log10 of the molar value. Where two headings read alike, the source gives them in different places.

For orientation: pIC50 means the IC50 on a negative log10 scale, so that one unit is a factor of ten. One may read the Cmax as the peak of the concentration-time curve. What is called Tmax is the time from dosing to the highest level. For the compound `CC1=C(/C=C/C(C)=C/C=C/C(C)=C/C(=O)O)C(C)(C)CCC1n1ccnc1` (racemic) [VN/14-1, (±)-4-(1H-imidazole-1-yl)retinoic acid], the pIC50 at RARα (setting [2]) is around 7.80. For the same compound, in data set [1] (setting [3]), the AUC is 567.80 μ/ml min, the Cmax amounted to 5020 ng/mL, the Tmax is 30 min and the t1/2 came to 68.4 min. The pIC50 at RARγ (setting [2]) is around 7.80. The “inhibition of CYP19 (aromatase)” value at CYP19 (aromatase) is on record as “barely inhibited”.
`CC(C=CC1=C(C)C(n2ccnc2)CCC1(C)C)=CC=CC(C)=CC(=O)Nc1ccc(O)cc1` (racemic) [VN/66-1, (±)-4-(1H-imidazol-1-yl), N-(4′-hydroxyphenyl)retinamide]: the “binding to RARα” value at RARα is “did not bind”. Besides, in data set [1] (Balb/c, mouse, plasma, sc, mice, 10 mg/kg s.c., average of two animals, read-out: Cmax), the Cmax was 16000 ng/mL. Besides, at RARγ, the “binding to RARγ” value was “did not bind”. Besides, the “inhibition of CYP19 (aromatase)” value against CYP19 (aromatase) was “barely inhibited”.
As to `CC(C=CC1=C(C)C(n2ccnc2)CCC1(C)C)=CC=CC(C)=CC(=O)n1ccnc1` (stereo not drawn) [VN/50A-1], the “binding to RARα” value on RARα is “did not bind”. Also, the “time to complete elimination from plasma” value in data set [1] (after administration to mice, FIG. 18) is at most 3 h. Besides, the “binding to RARγ” value at RARγ was “did not bind”. Moreover, on CYP19 (aromatase), the “inhibition of CYP19 (aromatase)” value is “barely inhibited”.
